Experimental findings from article PMC10385162 (Viruses, 2023) are described below.

Series [1] addresses HIV-1 reverse transcriptase (RT)-associated RNase H (Human immunodeficiency virus type 1 group M subtype B, UniProt P03366). Description: HIV-1 RT-associated RNase H inhibition assay. The class given is biochemical. The following applies: for IC50 / IC50 HIV-1 RNase H: concentration required to reduce HIV-1 RT-associated RNase H activity by 50%, mean of three independent experiments ± SD; for Percentage of residual enzymatic activity at the highest concentration tested: HIV-1 RNase H.

Series [2] has as its target SARS-CoV-2 nsp14/nsp10 ExoN (Severe acute respiratory syndrome coronavirus 2, UniProt P0DTD1). Put plainly: SARS-CoV-2 nsp14 exonuclease (ExoN) activity assay, HPLC, RNA22 substrate. The following applies: for inhibition at 100 µM: read-out: Inhibition of ExoN activity. The class given is biochemical.
A further series has as its system SARS-CoV-2 WA1/2020. Put plainly: Plaque reduction assay in Vero E6 ACE2 cells. The class given is cell-based. The following applies: for EC50 fold higher compared to 1c: plaque reduction assay.
Series [3] concerns the target full-length SARS-CoV-2 nsp14 MTase (Severe acute respiratory syndrome coronavirus 2, UniProt P0DTD1). Description: SARS-CoV-2 nsp14 N7-methyltransferase activity assay. The series is classed as biochemical. Conditions: absence vs presence of inhibitor; GpppA substrate, [3H]-SAM.
The test system of series [4] is SARS-CoV-2 WA1/2020 strain. The series is classed as cell-based.

Where “and” joins values, the source holds several entries; their conditions need not be identical. Equal values may be shown once. Read-outs that look alike come from different tables or passages of the source.

Take `O=C(N/N=C/c1cc(O)ccc1O)c1cc2ccccc2cc1O` [1d]: the IC50 in series [1] (read-out: IC50 HIV-1 RNase H) amounted to 35.9 ± 8.6 µM.

Take `CC(=O)Nc1ccc(/C=N/NC(=O)c2cc3ccccc3cc2O)cc1` [1j]: in series [1], the “Percentage of residual enzymatic activity at the highest concentration tested” value turned out to be 91% and the “IC50 HIV-1 RNase H” value was “inactive”. Further, the half-inhibitory concentration (IC50) in series [1] (read-out: IC50 HIV-1 RNase H) is > 100 µM.

With `O=C(N/N=C/c1cc(O)c(O)c([N+](=O)[O-])c1)c1ccccc1O` [2a, (E)-N′-(3,4-Dihydroxy-5-nitrobenzylidene)-2-hydroxybenzohydrazide], the melting point was 275 °C (dec.). Also, 14 ± 0.97 µM corresponded to half-maximal inhibition in series [1] (IC50 HIV-1 RNase H) (IC50). Further, the inhibition at 100 µM in series [2] is ~65%. The “EC50 fold higher compared to 1c” value with SARS-CoV-2 WA1/2020 is on record as 4.3 fold.

`O=C(N/N=C/c1cc(O)c(O)c([N+](=O)[O-])c1)c1cc2ccccc2cc1O` [1c, (E)-N′-(3,4-Dihydroxy-5-nitrobenzylidene)-3-hydroxy-2-naphthohydrazide]: the 50% inhibitory concentration (IC50) stood at 0.57 ± 0.04 µM in series [1] (IC50 HIV-1 RNase H) and 2.2 µM in series [2] (RNA22 substrate, HPLC). The “Inhibition of ExoN activity” value in series [2] (at 100 µM) was “complete inhibition”. For the same compound, the “Effect on nsp14 MTase activity (tritium incorporation)” value in series [3] was “no significant differences”. In series [4] (12.5 µM, A549 ACE2+ cells, MOI 0.05), the “Effect on virus titers” value is recorded as “no measurable effect”. The “Reduction in virus titers” value in series [4] (25 µM, 24 h post-infection) was determined as 6.4 fold; in series [4] (25 µM, 48 h post-infection), 7.8 fold; in series [4] (50 µM, 24 h post-infection), 78.5 fold; in series [4] (50 µM, 48 h post-infection), 48.9 fold. The EC50 with SARS-CoV-2 WA1/2020 (concentration required to reduce plaque number by 50%, 3 d, mean and SD of three independent experiments, read-out: EC50 anti-SARS-CoV-2 activity by plaque reduction assay) was 10.23 ± 0.01 µM.

Consider `O=C(N/N=C/c1ccc(O)c(O)c1O)c1cc2ccccc2cc1O` [1f], for which the IC50 in series [1] (read-out: IC50 HIV-1 RNase H) came out at 0.93 ± 0.24 µM.

For the compound `CCN(CC)c1ccc(/C=N/NC(=O)c2cc3ccccc3cc2O)cc1` [1k], in series [1] (read-out: IC50 HIV-1 RNase H), the half-maximal inhibitory concentration (IC50) was 7 to 8 µM and 7.94 µM.

`O=C(N/N=C/c1ccc(O)c([N+](=O)[O-])c1)c1cc2ccccc2cc1O` [1a, (E)-N’-(4-Hydroxy-3-nitrobenzylidene)-3-hydroxy-2-naphthohydrazide]: the concentration for half-maximal inhibition (IC50) in series [1] (read-out: IC50 HIV-1 RNase H) was determined as 69.6 ± 8.46 µM.

Take `O=C(N/N=C/c1cc(O)c(O)c([N+](=O)[O-])c1)c1cccc(F)c1` [2b, (E)-N′-(3,4-Dihydroxy-5-nitrobenzylidene)-3-fluorobenzohydrazide]: the melting point is 251 to 252 °C (dec.). Half-maximal inhibition in series [1] (IC50 HIV-1 RNase H) (IC50) required 15.2 ± 1.35 µM. In addition, in series [2], the inhibition at 100 µM is ~53%. Also, the “EC50 fold higher compared to 1c” value with SARS-CoV-2 WA1/2020 worked out at 3.4 fold.

Take `O=C(N/N=C/c1cc(O)c(O)c([N+](=O)[O-])c1)c1cccnc1` [2c, (E)-N′-(3,4-Dihydroxy-5-nitrobenzylidene)-nicotinoylhydrazide]: the melting point is 250 to 251 °C (dec.). In series [1] (IC50 HIV-1 RNase H), this compound registered an IC50 of 24.7 ± 3.89 µM. Besides, in series [2], the inhibition at 100 µM is ~37%. In addition, in the series with SARS-CoV-2 WA1/2020 (concentration required to reduce plaque number by 50%, 3 d, mean and SD of three independent experiments), the “EC50 anti-SARS-CoV-2 activity by plaque reduction assay” value was “inactive”.

Consider `COc1ccc(/C=N/NC(=O)c2cc3ccccc3cc2O)c(O)c1O` [1e, (E)-N’-(2,3-Dihydroxy-4-methoxybenzylidene)-3-hydroxy-2-naphthohydrazide], for which the IC50 in series [1] (read-out: IC50 HIV-1 RNase H) was determined as 1.02 ± 0.15 µM.

As to `COc1cc(/C=N/NC(=O)c2cc3ccccc3cc2O)cc([N+](=O)[O-])c1O` [1b, (E)-N′-(4-Hydroxy-5-methoxy-3-nitrobenzylidene)-3-hydroxy-2-naphthohydrazide], in series [1] (read-out: IC50 HIV-1 RNase H), the IC50 was 7 to 8 µM and 7.16 µM.

On to `COc1ccc(/C=N/NC(=O)c2cc3ccccc3cc2O)cc1O` [1g], for which the “Percentage of residual enzymatic activity at the highest concentration tested” value in series [1] is on record as 84%. Also, the 50% inhibitory concentration (IC50) in series [1] (read-out: IC50 HIV-1 RNase H) was > 100 µM.

As for `CCOC(=O)C(=O)CC(=O)/C=C/c1cccn1Cc1ccc(F)cc1` [RDS1643, reference compound], the 50% inhibitory concentration (IC50) in series [1] (read-out: IC50 HIV-1 RNase H) was 10.8 ± 5.2 µM.

As for `O=C(N/N=C/c1ccc(O)cc1O)c1cc2ccccc2cc1O` [1h], the 50% inhibitory concentration (IC50) in series [1] (read-out: IC50 HIV-1 RNase H) was determined as 36.4 ± 10.5 µM.

With `CN1CCN(c2ccc(/C=N/NC(=O)c3cc4ccccc4cc3O)cc2)CC1` [1l, (E)-N’-[4-(N-Methylpiperazinyl)benzylidene]-3-hydroxy-2-naphthohydrazide], the melting point fell in the range of 256 to 257 °C. Further, in series [1], the “Percentage of residual enzymatic activity at the highest concentration tested” value came to 70% and the “IC50 HIV-1 RNase H” value was “inactive”. Besides, the IC50 in series [1] (read-out: IC50 HIV-1 RNase H) is > 100 µM.

In the case of `O=C(N/N=C/c1ccc(O)c(O)c1)c1cc2ccccc2cc1O` [Dynasore, (E)-N′-(3,4-dihydroxybenzylidene)-3-hydroxy-2-naphthohydrazide, reference compound], in series [1] (read-out: IC50 HIV-1 RNase H), the IC50 was found to be 3.1 ± 0.52 µM.

On to `CN(C)c1ccc(/C=N/NC(=O)c2cc3ccccc3cc2O)cc1` [1i], for which, in series [1] (read-out: IC50 HIV-1 RNase H), the IC50 was determined as 27.5 ± 2.65 µM.
